{
  "source": "patent US12473310B2",
  "about": "“Vitamin D3 phosphate and pharmaceutically acceptable salts thereof, pharmaceutical compositions comprising the compound and methods for preparing the compound” (King's College London, priority 2020, dated 2025)",
  "key": {"[1]": {"assay": "patch pre-formulation, saturated concentration in adhesive", "assay_type": "physicochemical", "conditions": "DURO-TAK 87-2051 adhesive", "protocol": "To each solution, 175 μL of the transdermal adhesive DURO-TAK 87-2051 (51.5 w/v %) was added, and vortexed. Then 2.0 μL of α-tocopherol and 2.5 μL of diethylene glycol monoethyl ether were added and vortexed. The visual solubility was assessed.\nTo this solution 4 mg of α-tocopherol in 3 mL ethyl acetate was added and 167 μL of the transdermal adhesive DURO-TAK 87-2051 (51.5 w/v %) in 7 mL ethyl acetate with 6 μL diethylene glycol monoethyl ether was also added.\nEach solution (3×3 cm) was cast onto the backing (3M™ Scotchpak™ Polyester Backing Film Laminate 9730, UK) to determine the clarity, and the saturation limit of the test agents in the adhesive mixtures."}, "physchem": {"assay": "physchem", "assay_type": "physicochemical", "conditions": "% Recovery", "protocol": "To validate the method of test agent recovery from the skin, solutions (1.0 mg/mL) of each vitamin D analogue were prepared in 100% PG. The precise concentrations in these samples were analysed by HPLC method described above. To assess the chemical stability of each test agent in the donor solutions used in the Franz cell experiments, 1.0 mg/mL of the samples prepared in 100% PG were incubated in a water bath at 37° C. for 24 h. In addition, to understand the chemical stability of each test agent in the extraction solvents used in the skin deposition studies, 1 mL of the drug sample in 100% PG was added into 10 mL of extraction fluid (MeOH for cholecalciferol, cholecalciferol phosphate acid, and MeOH:water, 90:10 for cholecalciferol phosphate disodium salt). Samples in PG (n=3) and samples in PG with the extraction fluid (n=3) were left in the water bath overnight at 37° C. and the sample concentration was analysed by the HPLC method described above. To assess whether the HPLC fluid had been impacted by any proteins that had leaked out of the skin, PG:water, 80:20 was added to donor and receiver chambers of porcine skin loaded Franz cells (n=3). A 5 mL sample of the receiver fluid was collected, and 25 μL of each test solution was added to this fluid and diluted to MeOH (1:1) and analysed by the HPLC method described previously. To verify the percentage of drug that could be recovered from the skin tissue, the skin sections were dermatomed (1 mm thickness) (n=3). The test solutions were spiked (50 μL) into a sample bottle containing the chopped dermatomed skin tissue. The samples containing the spiked drugs were left for 1 h for the drugs to absorb into the tissues. After the 1 h incubation period, 5 mL of extraction fluid (MeOH for cholecalciferol, cholecalciferol phosphate acid, and MeOH:water, 90:10 for cholecalciferol phosphate disodium salt) was added into each piece of the dermatomed skin tissue, then incubated in a shaking water bath for 1 h. The solutions were then tissue lysed by a tissue lyser for 40 min and homogenised by Ultra Turrax for 1 min and filtered using 0.45 μm syringe filters, centrifuged for 10 min at 13,000 rpm, and analysed by the HPLC method described above. In terms of cholecalciferol phosphate acid, after 1 h incubation and adding 5 mL extraction fluid, immediately the solutions with skin tissues were tissue lysed by a tissue lyser for 15 min. The solutions were then centrifuged for 10 min at 13,000 rpm and the supernatants were analysed by the HPLC method described above."}, "[2]": {"assay": "solubility in donor solution and thermodynamic activity (Table 4)", "assay_type": "physicochemical", "conditions": "PG"}, "[3]": {"assay": "skin permeation and deposition, automated Franz diffusion cell (Example 5)", "assay_type": "in vitro ADME", "conditions": "PG formulation", "protocol": "For the final formulation, 61.5 mg of cholecalciferol phosphate acid in 4.1 mL hexane was added into 1.435 mL DURO-TAK 87-2051 (51.5 w/v %) with 16.4 μL α-tocopherol and 20.5 μL diethylene glycol monoethyl ether. Likewise, 120 mg of cholecalciferol phosphate disodium salt in 35.2 mL MeOH:water (10:1) was added to 1.336 mL of DURO-TAK 87-2051 (51.5 w/v %) in 56 mL ethyl acetate with 32 mg of α-tocopherol and 48 μL diethylene glycol monoethyl ether. Each formulation was spread evenly on the 10×10 cm patch tray and left overnight to dry completely. Following the complete drying of the solvents, the adhesive layer was covered by the M3 Release layer (SCOTCHPAK 9755, UK), compressed, and then cut using a 34 mm circular manual die cutter (SCP Super Cutting Press, UK).\nSubsequently, 1 mL aliquots were applied to the skin.\nThe automated Franz diffusion cell was used to investigate the permeation of cholecalciferol, cholecalciferol phosphate salt and cholecalciferol phosphate acid through porcine skin. Fresh white adult porcine ears were obtained from a local butcher (Ginger Pig, UK). Any damaged ears were discarded. The ears were removed from the carcass after hair removal. […] The collected receiver fluid was analysed by HPLC methods described previously.\nAt the end of the transport studies, the Franz cells were dismantled, and the donor solution was collected into bottles containing 10 mL of extraction fluid; MeOH for cholecalciferol, cholecalciferol phosphate acid and MeOH:water (90:10) for cholecalciferol phosphate salt, by wiping the surface of the skin and the inside of the donor compartment with two wet and then two dry cotton buds. […] Each collection was analysed by the HPLC method described above. Thus, the amount of each test agent on the surface of the skin, deposited in the skin, and passed into the receiver fluid was determined so that % mass recovery per cm^2 per skin could be calculated and drug deposition profiles could be obtained."}, "[4]": {"assay": "chemical stability on storage over 4 weeks", "assay_type": "physicochemical", "protocol": "The chemical stability of cholecalciferol phosphate acid/disodium salt was assessed in three different conditions over a 4-week period. Aliquots of 2 mg for each sample was stored at room temperature, 4° C., and −20° C. in a glass bottle covered with foil. A 20 mL sample of MeOH and MeOH:water (90:10) was added to cholecalciferol phosphate acid and cholecalciferol phosphate disodium salt, and the concentration and purity were assessed every week by the HPLC method described previously. The peak area was used to calculate sample concentration and the gradient of the data points being used to calculate the degradation rate."}},
  "data": [
    {"molecule": "C=C1CC[C@H](OP(=O)(O)O)C/C1=C/C=C1\\CCC[C@@]2(C)C1CC[C@@H]2[C@H](C)CCCC(C)C", "note": "(stereo in doubt) [Cholecalciferol phosphate acid, cholecalciferol phosphate acid]", "values": [
      {"measurement": "saturated concentration in patch formulation (highest loading without precipitation)", "setting": "[1]", "result": 5.02, "unit": "w/w %"},
      {"measurement": "recovery at 0.091 mg/mL", "setting": "physchem; chemical stability with extraction fluid", "result": "92.2 ± 2.26", "unit": "%"},
      {"measurement": "recovery at 24 h, 1 mg/mL", "setting": "physchem; chemical stability without extraction fluid", "result": "88.5 ± 3.35", "unit": "%"},
      {"measurement": "Solubility in PG", "setting": "[2]", "result": 4690, "unit": "µg/mL"},
      {"measurement": "fold higher transdermal permeation through the skin compared to cholecalciferol", "setting": "[3]", "result": "about 9.34 fold"},
      {"measurement": "loss of the original compound over 4 weeks", "setting": "[4]; 4° C.", "result": 9.98, "unit": "%"},
      {"measurement": "reduction of purity over 4 weeks", "setting": "[4]; 4° C.", "result": 27.18, "unit": "%"},
      {"measurement": "loss of the original compound over 4 weeks", "setting": "[4]; room temperature", "result": 77.15, "unit": "%"},
      {"measurement": "reduction of purity over 4 weeks", "setting": "[4]; room temperature", "result": 72.2, "unit": "%"},
      {"measurement": "reduction of purity over 4 weeks", "setting": "[4]; −20° C.", "result": 1.03, "unit": "%"}
    ]}
  ]
}
